Measured values reported in patent publication US12433892B2, “Compositions and methods of treatment for neurological disorders comprising depression” (Gliapharm SA, priority 2018, dated 2025).
Structures can show the parent of a compound that is named as a salt.

Columns and labels:
C57Bl/6 mice [1] = test: Open field test (OFT); type: in vivo, mouse; details: 100 mg/kg per os, 1.5 hr
Experimental: (§1) The depression mouse model features wild-type C57Bl/6 laboratory mice without any transgenic changes. To ensure that the actions of the tested molecules in the animal models of depression are not due to effects on locomotor activity or muscle strength in animals, molecules are administered to mice that are then tested in the grip strength test (GST) and in the open-field test (OFT) following the protocols described in Carrard et al. (Carrard, Elsayed, Margineanu, Boury-Jamot, Frangiere, Meylan, Petit, Fiuemlli, Magistretti and Martin. Peripheral administration of lactate produces antidepressant-like effects. Molecular Psychiatry, 2016 Oct. 18, e-pub). If alterations in muscle strength and/or locomotor activity are measured following administration drug, no further analyses are performed with this molecule.
OFT is a test used to identify molecules that could modulate mouse activity, which might affect results in the FST. 1.5 hr after a single oral molecules administration, mice are placed in a 39 cm (long)×33 cm (large)×33 cm (high) open box and their activity is videotaped for 10 minutes. Mouse activity is then automatically scored using Ethovision pro video tracking system (Noldus).

[2] = In vivo pharmacokinetics (PFC microdialysis and plasma); design: species or system mouse; details: after gavage with 100 mg/kg
Experimental: Mice were anesthetized using isoflurane (2% and 800 mL/min O2). Before surgery, Finadyne (1 mg/kg, s.c.) was administered for analgesia during surgery and the post-surgical recovery period. A mixture of bupivacaine and epinephrine was used for local anesthesia of the incision site of the periost of the skull.
The animals were placed in a stereotaxic frame (Kopf instruments, USA). MetaQuant microdialysis probes with a 3 mm exposed polyacrylonitrile membrane (MQ-PAN 3/3, Brainlink, the Netherlands) were implanted into the prefrontal cortex (coordinates for the tip of the probe: AP=+2.0 mm (to bregma), lateral=−0.7 mm (to midline), ventral=−3.3 mm (to dura), with the incisor bar set at 0.0 mm and an angle of 8°). All coordinates were based on “The mouse brain in stereotaxic coordinates” by Paxinos and Franklin (2004). The probes were attached to the skull with a stainless steel screw and dental cement (Fuji Plus Capsules, Henry Schein, the Netherlands).
In the same surgical procedure, a catheter was placed into the jugular vein to accommodate blood sampling. An indwelling cannula was inserted into the right jugular vein, and exteriorized through an incision on top of the skull. The end of the jugular vein catheter was fixed in position with dental acrylic cement and attached to the skull with two stainless steel screws.
Experiments were initiated one day after surgery. The MetaQuant microdialysis probes were connected with flexible PEEK tubing (Western Analytical Products Inc. USA; PK005-020) to a microperfusion pump (CMA Microdialysis) and perfused with aCSF+0.2% BSA at a flow rate of 0.12 μL/min. Ultrapurified water+0.2% BSA was used as the carrier flow at a flow rate of 0.80 μL/min. After a minimum of 1.5 hours of prestabilization, microdialysis samples were collected in 30 minute intervals. Samples were collected into polystyrene microvials (Microbiotech/se AB, Sweden; 4001029) using an automated fraction collector (UV 8301501, TSE, Univentor, Malta). After collection of three basal samples, at t=0 minutes, drug of interest was administered per os. Eight additional samples were collected after compound administration. All samples were stored at −80° C. until off-line analysis.
In parallel, blood samples (50 μL) were taken from the jugular vein through the cannula. These samples were collected at specified intervals into vials containing 5 μL heparin (500 IE/mL in saline). The samples were mixed by inverting the tubes and, subsequently, centrifuged at 4000 rpm (1500×g) for 10 min at 4° C. The supernatant was stored as plasma in 1.5 mL Eppendorf vials (Sarstedt, Germany) at −80° C. until off-line analysis.
At the end of the experiment, the animals were euthanized and terminal brain tissue was collected for visual histological verification of the probe positions.
PK was measured for GP-04, GP-05, GP-07, GP-R1 and GP-P1 in the PFC (prefrontal cortex) and plasma of wild type C56Bl/6 mice by CRO Brainsonline.

[3] = system: cerebral extracellular lactate; test: In vivo pharmacodynamics: lactate biosensors in cortex; design: species or system mouse; details: 10 mg/kg per os
Experimental: Extracellular levels of lactate were monitored in vivo using lactate biosensors (Pinnacle Technology), according to the manufacturer's instructions. Cannulae were surgically implanted in mice cerebral cerebral motor cortex areas M1/M2 (coordinates: +1.94 mm (to bregma), lateral −1.4 mm (to mideline), ventral −1.0 mm (to dura)) 5-7 days before administration of the compounds. Drugs were administered per os as previously described, and cerebral levels of extracellular lactate were dynamically recorded for 6 hours. Mice were administered vehicle alone first, followed 3 hours later by vehicle or drug (10 or 100 mg/kg). Area Under the Curve (AUC) quantifying the fluctuations of extracellular lactate concentrations for each of the compound tested was calculated using Graphad Prism and the ratio of AUC after drug over Vehicle administration was calculated. Groups of 8 male mice were used for each condition.
To measure biological effect of lead molecules in vivo in the brain, lactate levels were quantified after administration of the drug by using lactate biosensors implanted in the cortex of freely moving mice.

[4] = system: C57Bl/6 male and female mice; test: In vivo chronic toxicity (28 days)
Experimental: During this period, clinical symptoms and weight were recorded.
Chronic toxicity was assessed.

C57Bl/6 mice [5] = test: Forced swim test (FST); type: in vivo, mouse; details: 100 mg/kg per os, 1.5 hr
Experimental: as §1
FST is a test used to identify molecules that produce an acute antidepressant-like behavioral response.
1.5 hr after a single oral (vehicle or lactate-enhancing molecules) or intraperitoneal (vehicle, fluoxetine or despratmine) administration, mice are placed in a cylindrical container filled to a depth of 15 cm with water (23-25° C.). 6-min swim session are videotaped, and time spent immobile, which reflects the animal depressive-like behavior, is scored subsequently by an experimenter blind to the conditions used.

C57Bl/6 mice [6] = test: Grip strength test (GST); type: in vivo, mouse; details: 100 mg/kg per os, 1.5 hr
Experimental: as §1
GST is a test used to identify molecules that could modulate mouse grip strength, which might affect results in the FST. 1.5 hr after a single oral molecules administration, mice are placed on a grid dynamometer and the muscle strength (N) or their two front paws or all their four paws is measured in 3 consecutive sessions, and the best score is recorded.

astrocytes [7] = test: Intracellular glycogen quantification; type: cell-based, mouse; details: Prestwick hits; 10 uM, 3 h
primary astrocytes = test: High throughput screening (HTS) for lactate secretion: acidification of extracellular medium (SNARF5); type: cell-based, mouse; details: Appendix I; primary screening confirmation (SNARF5)
Experimental: Primary cultures of cerebrocortical astrocytes were obtained from 1-2-day-old OF1 mouse pups (Charles River Laboratories). Briefly, cortices were isolated and minced in small pieces under a dissecting microscope. The cells were incubated for 30 min at 37° C. in a solution containing 20 U/ml of papain enzyme (Worthington Biochemical), L-cysteine 1 mM (Sigma), and 10 kU/ml DNase I (Worthington Biochemical) for an enzymatic dissociation. […]
Secretion of lactate in a high-throughput screening (HTS) fashion was measured indirectly through the acidification of extracellular medium. […]
After 90 min stimulation, fluorescence was read at exc. […] The ratio of fluorescence between 630 nm and 580 emission values, which represents extracellular pH, was calculated.
In each plate, 8 wells were used for negative controls (DMSO) and 8 wells were used for positive controls (CCCP 2 uM in DMSO). Z prime values were calculated for each of the plates tested and values<0 were discarded.
The average and SD of compounds' values tested in duplicates were calculated, and compound was noted as HIT when the difference between compound's average and negative control's average was greater than three times the sum of compound's SD and negative controls' SD. […] Scores are calculated as the % of activity compared to the positive control in each plate (which is 100%). […]

astrocytes [8] = test: Extracellular lactate quantification; type: cell-based, mouse; design: Score_LACTATE / Score Lact.: scale not given here; details: Appendix I; secondary screening, dosage of extracellular lactate
Experimental: Primary cultures of cerebrocortical astrocytes were obtained from 1-2-day-old OF1 mouse pups (Charles River Laboratories). Briefly, cortices were isolated and minced in small pieces under a dissecting microscope. The cells were incubated for 30 min at 37° C. in a solution containing 20 U/ml of papain enzyme (Worthington Biochemical), L-cysteine 1 mM (Sigma), and 10 kU/ml DNase I (Worthington Biochemical) for an enzymatic dissociation. Papain activity was stopped by the addition of fetal calf serum (FCS) to the solution, and a single-cell suspension was then obtained by mechanical dissociation, which consisted in cells trituration in a DMEM (D7777, Sigma-Aldrich) medium (supplemented with 44 mm NaHCO3, and 10 ml/L antibiotic/antimycotic solution) containing 10% FCS. The cells were seeded at an average density of 6×10^4 cells/cm^2 in poly-D-lysine-coated 96, 12 or 6-well culture plates, depending on their use, and incubated at 37° C. in a humidified atmosphere containing 5% CO2/95% air. Culture medium was renewed twice per week. Cells were stimulated and harvested between DIV14 and DIV17, when confluence and cell growth were optimal.
Secretion of L-lactate was determined in the extracellular medium of 96-well plated astrocytes after 90 min stimulation (at 37° C., in 5% CO2/95% air conditions) with the drug of interest. The stimulation medium was composed of D5030 medium (completed with D-glucose 5 mM and 44 mM sodium bicarbonate) for 90 min in concentrations ranging from 0 to 100 μM.
Briefly, 200 μl of a Glycine (Sigma)-Semicarbazide (Acros) 0.2M pH 10 buffer containing 3 mM NAD (Roche) and LDH 14 U/ml (Roche) was added to each well of a 96-well plate containing 30 μl aliquots complemented with 20 μl fresh complete D5030 medium. Samples were incubated at 37° C. for 1 h. After samples cooled down at room temperature, the fluorescence intensity (340 nm excitation/450 nm emission) that represents the amount of NADH produced was measured, and lactate concentration values were determined from a standard curve of L-lactate.
Statistical analysis consisted in ANOVA followed by Fisher LSD post-hoc test for pair-wise comparisons.
Levels of lactate secreted by astrocytes were measured in the extracellular medium at 90 min after stimulation with hits (molecules) from the CDC54K library.

Row | SMILES | activity (open field) (C57Bl/6 mice [1]) | levels in the PFC [2] | cerebral lactate (AUC ratio vs vehicle) [3] | chronic toxicity (toxic or safe) ([4]; 10 mg/kg per os once a day, 28 days) | pathological analysis ([4]; chronic 10 mg/kg, liver, kidney) | time spent immobile (C57Bl/6 mice [5]) | grip strength (C57Bl/6 mice [6]) | Glycogen (statistical significance of glycogen degradation) (astrocytes [7]) | Score_SNARF (primary astrocytes) | Score_LACTATE (astrocytes [8])
1 | COc1ccc(Cc2nccc3cc(OC)c(OC)cc23)cc1OC [Papaverine hydrochloride] | does not affect | at therapeutic range (100 nM to 1 uM) and sustained over several hours | Significant increase | safe | minor treatment-related effects | significant reduction | does not affect | **** (****p<0.0001) |  | 
2 | O=C(C[n+]1cc(-c2ccccc2)n2c1CCC2)c1ccc(Br)cc1.[Br-] [T0502-5560] |  |  |  |  |  |  |  |  | 0.8504 | 0.8524
